Legend:
Format in all cases: cell-based, mouse
fibronectin = test: Fibronectin expression in bone marrow cells (Western blotting, real-time PCR)
Procedure: Bone marrow cells were collected from 10-week-old EP1^−/− and wild-type mice and treated with 3 μM PGE2 for 24 hours before harvest. Total protein was extracted from the cultured cells at day 17 and RNA was extracted at days 10, 12, 14, 17 and 21 after culture. Western blotting (FIG. 10A) and real-time PCR (FIG. 10B) were performed to examine the expression levels of fibronectin. […] Statistical comparisons were performed using 2-way ANOVA followed by Dunnett's test. a=P<0.05 vs. wild-type, b=P<0.05 vs. control, c=P<0.05 vs. PGE2.
(§1) Relative RNA levels of EP1 and fibronectin were determined by real-time PCR (FIGS. 11A and 11B). Immunohistochemistry was performed using mouse fibronectin primary antibody on the femur fracture tissue samples collected from 10-week-old EP1^−/− and wild-type mice at 3 and 7 days post-fracture (FIG. 11C). Statistical comparisons were performed using 2-way ANOVA followed by Student's t-test. a=P<0.05 vs. wild-type, b=P<0.05 vs. control, c=P<0.05 vs. PGE2.
(§2) Mice were sacrificed post fracture at 3, 7, 10, 14, 21 and 28 days (N=4). Fracture callus tissue samples were carefully dissected from soft tissue and homogenized using the TissueLyzer (Qiagen; Valencia, Calif.). Total RNA was then extracted from homogenized samples by the RNeasy Fibrous Tissue Midi Kit (Qiagen) according to the manufacturer's instructions. One microgram aliquots of RNA were reverse transcribed into cDNA using the iScript cDNA Synthesis Kit (Bio-Rad; Hercules, Calif.). Real-time […] was performed using the Rotor Gene 6000 real-time DNA amplification system (Qiagen) according to the manufacturer's instruction. […]
Bone marrow cells were washed with cold phosphate-buffered saline (PBS) three times and lysed on ice in Golden Lysis Buffer (GLB) for 30 minutes as previously described (Li et al., Exp. Cell Res. 300:159-69 (2004)). […] The immune complexes were detected using NBT/BCIP substrate (Pierce Biotechnology).

EP2 and EP4 receptors = test: cAMP-Glo Assay in bone marrow cell cultures; set-up: dose or concentration left out as unconfirmed; settings: bone marrow cell cultures from wild type and EP1−/− mice
Procedure: Bone marrow cells were isolated from 10-week-old EP1^−/− mice and wild-type mice. After culturing for 7 days, cells were treated with PGE2 ([…]) or vehicle for 24 hours. […] The representative photomicrographs are shown at 200× original magnification. Statistical comparisons were performed using Student's T-test. “a” indicates p<0.05 compared to wild-type, “b” indicates p<0.05 compared to EP1^−/−. β-actin served as the loading control.
(§3) Bone marrow cells were isolated from 10-week-old EP1^−/− and C57BL/6J mice. Cells were cultured in 2 ml α-MEM containing 10% FBS at 5×10^6 cells/well in 6-well plates. After being cultured for 7 days, the medium was replaced with media containing beta-glycerophosphate and ascorbic acid, and the media was changed every two days thereafter. Cells were harvested on day 10, 12, 14, 17 and 21 after plating for alkaline phosphatase and alizarin red staining, and mRNA analysis by quantitative real-time PCR. Cell proliferation was examined using the Cell Proliferation ELISA BrdU (colorimetric) immunoassay kit (Roche; Indianapolis, Ind.) according to the manufacturer's instructions. Cell viability was examined using the CellTiter-Blue Cell Viability Assay (Promega; Madison, Wis.) according to the manufacturer's instructions. Intracellular cAMP activity in bone marrow cells was examined using the cAMP-Glo Assay (Promega) according to the manufacturer's instructions.

[1] = test system: primary bone marrow stromal cells; test: Bone nodule formation / mineralization (Alizarin red staining) in bone marrow cell cultures
Procedure: (§4) An EP1 expression vector was transfected into the EP1^−/− bone marrow cells by electroporation. […] Bone marrow progenitor cells at day 12 after culture were treated with SC19220 (10 μm) for 30 minutes followed by treatment with PGE2 (3 μm). After 24 hours, cells were stained with Alizarin red (FIGS. 12C and 12D). RNA extracted from the cultures was examined for osteocalcin expression (FIG. 12E). Statistical comparisons were performed using Student's t-test. a=P<0.05 vs. control, b=P<0.05 vs. PGE2.
Increasing concentrations of fibronectin were added to bone marrow cell cultures at day 12. 24 hours later, cells were stained with Alizarin Red (FIGS. 13A and 138) or harvested for real-time PCR (FIG. 13B). Statistical comparisons were performed using Student's t-test, a=P<0.05 vs. control.
as §3

osteocalcin = test: Osteocalcin expression by real-time PCR in bone marrow cell cultures; settings: cultures treated with SC19220 and PGE2, RNA
Procedure: as §4
as §3, with “Intracellular cAMP activity in bone marrow cells was examined using the cAMP-Glo Assay (Promega) according to the manufacturer's instructions.” left out

EP1 mRNA = test: siRNA knock down of EP1 expression in primary bone marrow stromal cells (real-time PCR); settings: primary bone marrow stromal cells transfected with EP1 siRNA
Procedure: as §1, §2
To further confirm regulation of fibronectin by the PGE2-EP1 signaling pathway, siRNA as described above was used to knock down EP1 expression in primary bone marrow stromal cells. […] Fibronectin expression levels were examined by quantitative real-time PCR.

CCCCC[C@H](O)/C=C/[C@H]1[C@H](O)CC(=O)[C@@H]1C/C=C\CCCC(=O)O [PGE2]
fibronectin expression (fibronectin; cells with control siRNA, quantitative real-time PCR): stimulate fibronectin expression | expression of fibronectin (protein and mRNA) (fibronectin; wild-type bone marrow cells compared with EP1−/− cells, 3 μM PGE2 for 24 hours): dramatically increased | levels of cAMP (EP2 and EP4 receptors): similarly enhanced

CC(=O)NNC(=O)N1Cc2ccccc2Oc2ccc(Cl)cc21 [SC19220, 8-chloro-dibenz[b,f][1,4]oxazepine-10(11H)-carboxy-(2-acetyl)hydrazide]
bone nodule formation ([1]; primary bone marrow cell cultures at day 12, SC19220 (10 μm) for 30 minutes, then PGE2 (3 μm), 24 hours, Alizarin red): accelerated bone nodule formation | time in culture at which bone nodule formation was induced ([1]; wild-type cells, 12 day cultures treated with antagonist and PGE2 for 24 hours, untreated cultures typically form nodules following 14 days): ≤ 13 days | expression level of osteocalcin (osteocalcin): increased

EP1 siRNA: siRNA used to knock down EP1 expression; example sequences SEQ ID NO:21 and SEQ ID NO:22 (chain 1 AGCUUGUCGGUAUCAUGGUTT; chain 2 ACUUCUAAGCACACCAGATT; chemistry not given here)
decrease of EP1 mRNA (EP1 mRNA): about 40% | PGE2-stimulated fibronectin expression (fibronectin; cells transfected with EP1 siRNA vs control siRNA, quantitative real-time PCR): inhibited

fibronectin
bone nodule formation ([1]; wild-type bone marrow cells, 5 μg/ml fibronectin added at day 12, 24 hours, alizarin red): did not alter bone nodule formation | mineralization ([1]; wild-type bone marrow cells, 12.5 μg/ml fibronectin added at day 12, 24 hours, alizarin red): significantly reduced mineralization | mineralization ([1]; wild-type bone marrow cells, 25 μg/ml fibronectin added at day 12, 24 hours, alizarin red): significantly reduced mineralization

Reference: patent publication US20120328631A1, “EP1 INHIBITION” (UNIVERSITY OF ROCHESTER, priority 2010, published 2012)
